Here are results for 20 molecules from patent US9561231B2 (AbbVie Inc., priority 2012, dated 2017).

Assay [1] deals with T1, second (BD2: amino acids E352-E168) bromodomain of BRD4 (Homo sapiens, UniProt O60885).
T1 construct: protocol
The assay can be described thus: TR-FRET bromodomain binding assay, BRD4 BD2. The conditions noted are these: Ki calculated from IC50, probe Kd and probe concentration, read-out: TR-FRET Binding Ki: BRD4 (BDII_E352-M457). A digest of the protocol:
(§1)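 Displacement of an Alexa647-labelled BET-inhibitor from His-tagged BD1 (K57-E168) or BD2 ([…]) measured by TR-FRET in pH 6.0 sodium phosphate buffer with NaCl, EDTA, Triton X-100 and DTT.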

Assay [2] has as its system breast cancer cell line MX-1. The assay can be described thus: MX-1 cell line proliferation assay (3-day). The assay is classed as cell-based. To be noted: Homo sapiens, MX1, MX-1 cells, Cell Titer Glo, read-out: Cellular proliferation: EC50. As for the experimental part:
The impact of compounds of the Examples on cancer cell proliferation was determined using the breast cancer cell line MX-1 (ATCC) in a 3-day proliferation assay. MX-1 cells were maintained in RPMI supplemented with 10% FBS at 37° C. and an atmosphere of 5% CO2. For compound testing, MX-1 cells were plated in 96-well black bottom plates at a density of 5000 cells/well in 90 μL of culture media and incubated at 37° overnight to allow cell adhesion and spreading. Compound dilution series were prepared in DMSO via a 3-fold serial dilution from 3 mM to 0.1 μM. The DMSO dilution series were then diluted 1:100 in phosphate buffered saline, and 10 μL of the resulted solution were added to the appropriate wells of the MX-1 cell plate. The final compound concentrations in the wells were 3, 1, 0.3, 0.1, 0.03, 0.01, 0.003, 0.001, 0.0003 and 0.0001 μM.
Luminescence readings from the Cell Titer Glo assay were normalized to the DMSO treated cells and analyzed using the GraphPad Prism software with sigmoidal curve fitting to obtain EC50s.

In assay [3] the target is T2, first (BD1: amino acids K57-E168) bromodomain of BRD4 (Homo sapiens, UniProt O60885).
T2 construct: His-tagged first (BD1: amino acids K57-E168)
Nature of the assay: TR-FRET bromodomain binding assay, BRD4 BD1. The conditions noted are these: Ki calculated from IC50, probe Kd and probe concentration, read-out: TR-FRET Binding Ki: BRD4 (BDI_K57-E168). An outline of the steps: as §1

The mark [4] stands for this setting: TR-FRET assay protocol (A-G, compound concentration range).
The mark [5] stands for this setting: TR-FRET assay protocol (D, E or G) per compound.

pEC50, pKi: −log10 of the molar value. Like-named read-outs stand apart in the source and are kept apart here.

Usually pKi stands for the negative decadic logarithm of the Ki, by convention in mol/L. Turning to `COc1cc(=O)n(C)nc1-c1ccccc1Oc1ccc(F)cc1` [Example 33, 6-[2-(4-fluorophenoxy)phenyl]-5-methoxy-2-methylpyridazin-3(2H)-one], the negative logarithm of the Ki (pKi) in assay [1] (setting [4]) was 5.64; in assay [3] (setting [4]), 5.52. Moreover, the pEC50 in assay [2] (72 h incubation) was 5.39.
Taken in the same sequence, the figures for `CC(C)N1CCN(c2ccc(-c3cc(=O)n(C)nc3-c3ccccc3Oc3ccccc3)cc2)CC1` [Example 180, 2-methyl-6-(2-phenoxyphenyl)-5-{4-[4-(propan-2-yl)piperazin-1-yl]phenyl}pyridazin-3(2H)-one] were 7.17, 7.35 and 6.43.
`Cn1cc(-c2cc(NS(=O)(=O)CC(F)(F)F)ccc2Oc2ccccc2)ccc1=O` [Example 229, 2,2,2-trifluoro-N-[3-(1-methyl-6-oxo-1,6-dihydropyridin-3-yl)-4-phenoxyphenyl]ethanesulfonamide]: the pKi was 7.66 in assay [1] (setting [4]) and 7.50 in assay [3] (setting [4]). The pEC50 in assay [2] (72 h incubation) was 6.29.
The corresponding values for `COC(=O)c1cc(=O)n(C)nc1-c1ccccc1Oc1ccccc1` [Example 218, methyl 1-methyl-6-oxo-3-(2-phenoxyphenyl)-1,6-dihydropyridazine-4-carboxylate] are 5.94, 6.11 and 5.01.
Taken in the same sequence, the figures for `CCOc1cc(=O)n(C)cc1-c1cc(NS(=O)(=O)Cc2ccccc2F)ccc1Oc1ccc(F)cc1F` [Example 351, N-[4-(2,4-difluorophenoxy)-3-(4-ethoxy-1-methyl-6-oxo-1,6-dihydropyridin-3-yl)phenyl]-1-(2-fluorophenyl)methanesulfonamide] were 7.53, 7.59 and 6.44.
Turning to `CCS(=O)(=O)Nc1ccc(Oc2ccc(F)cc2F)c(-c2cn(C)c(=O)cc2-c2ccc(CO)cc2)c1` [Example 278, N-[4-(2,4-difluorophenoxy)-3-{4-[4-(hydroxymethyl)phenyl]-1-methyl-6-oxo-1,6-dihydropyridin-3-yl]phenyl}ethanesulfonamide], the pKi in assay [1] (setting [4]) was 8.86; in assay [3] (setting [4]) it was 8.12. The pEC50 in assay [2] (72 h incubation) was 7.20.
The corresponding values for `CCOc1cc(=O)n(C)cc1-c1cc(NS(C)(=O)=O)ccc1Oc1ccc(F)cc1F` [Example 277, N-[4-(2,4-difluorophenoxy)-3-(4-ethoxy-1-methyl-6-oxo-1,6-dihydropyridin-3-yl)phenyl]methanesulfonamide] are 8.28, 7.97 and 7.32.
Taken in the same sequence, the figures for `CCS(=O)(=O)Nc1ccc(Oc2ccc(F)cc2F)c(-c2c[nH]c(=O)c(C)c2)c1` [Example 264, N-[4-(2,4-difluorophenoxy)-3-(5-methyl-6-oxo-1,6-dihydropyridin-3-yl)phenyl]ethanesulfonamide] were 7.26, 7.47 and 6.75.
The corresponding values for `CC(=O)Nc1ccc(Oc2ccccc2)c(-c2ccc(=O)n(C)n2)c1` [Example 12, N-[3-(1-methyl-6-oxo-1,6-dihydropyridazin-3-yl)-4-phenoxyphenyl]acetamide] are 6.16, 6.24 and 5.58.
For the molecule `CCS(=O)(=O)Nc1ccc(Oc2ccc(F)cc2F)c(-c2cn(C)c(=O)cc2-c2ccc(CN3CCN(C)CC3)cc2)c1` [Example 279, N-[4-(2,4-difluorophenoxy)-3-(1-methyl-4-{4-[(4-methylpiperazin-1-yl)methyl]phenyl}-6-oxo-1,6-dihydropyridin-3-yl)phenyl]ethanesulfonamide], the pKi is 8.89 in assay [1] (setting [4]) and 8.56 in assay [3] (setting [4]). In assay [2] (72 h incubation), the pEC50 is 7.34.
As to `Cn1cc(-c2cc(NS(C)(=O)=O)ccc2Oc2ccccc2C(F)(F)F)ccc1=O` [Example 236, N-{3-(1-methyl-6-oxo-1,6-dihydropyridin-3-yl)-4-[2-(trifluoromethyl)phenoxy]phenyl}methanesulfonamide], the negative logarithm of the Ki (pKi) in assay [1] (setting [4]) is 7.09; in assay [3] (setting [4]) it was 7.85. The pEC50 in assay [2] (72 h incubation) was 6.30.
With `CCOc1cc(=O)n(C)cc1-c1cc(NS(=O)(=O)CC)ccc1OCC1CC1` [Example 381, N-[4-(cyclopropylmethoxy)-3-(4-ethoxy-1-methyl-6-oxo-1,6-dihydropyridin-3-yl)phenyl]ethanesulfonamide], the pKi in assay [1] (setting [5]) was 7.25; in assay [3] (setting [5]), 7.48. For the same molecule, in assay [2] (72 hours with compound), the pEC50 was 6.94.
For the molecule `Cn1nc(-c2cc(C(N)=O)ccc2Oc2ccccc2)ccc1=O` [Example 14, 3-(1-methyl-6-oxo-1,6-dihydropyridazin-3-yl)-4-phenoxybenzamide], the pKi in assay [1] (setting [4]) is 5.91; in assay [3] (setting [4]), 5.59. Besides, the pEC50 in assay [2] (72 h incubation) was 4.94.
Taken in the same sequence, the figures for `CCS(=O)(=O)Nc1ccc(Oc2ccc(F)cc2F)c(-c2cn(C)c(=O)cc2OCC2CC2)c1` [Example 287, N-(3-(4-(cyclopropylmethoxy)-1-methyl-6-oxo-1,6-dihydropyridin-3-yl)-4-(2,4-difluorophenoxy)phenyl)ethanesulfonamide] were 8.67, 8.18 and 7.22.
As for `Cn1cc(-c2cc(NS(C)(=O)=O)ccc2OC2CCOC2)ccc1=O` (stereo not drawn) [Example 249, N-[3-(1-methyl-6-oxo-1,6-dihydropyridin-3-yl)-4-(tetrahydrofuran-3-yloxy)phenyl]methanesulfonamide], the results for the pKi in assay [1] (setting [4]) and in assay [3] (setting [4]) were 6.15 and 7.06, respectively. The pEC50 in assay [2] (72 h incubation) is < 5.52.
As to `Cn1cc(-c2cc(NS(C)(=O)=O)ccc2Oc2ccc(F)cc2F)c(-c2ccc(CO)cc2)cc1=O` [Example 272, N-[4-(2,4-difluorophenoxy)-3-{4-[4-(hydroxymethyl)phenyl]-1-methyl-6-oxo-1,6-dihydropyridin-3-yl]phenyl}methanesulfonamide], the values for the pKi in assay [1] (setting [4]) and in assay [3] (setting [4]) were 8.34 and 7.77, respectively. In assay [2] (72 h incubation), the pEC50 is 6.78.
The corresponding values for `Cn1nc(-c2ccccc2Oc2ccccc2)c(-c2ccc(N3CCOCC3)cc2)cc1=O` [Example 149, 2-methyl-5-[4-(morpholin-4-yl)phenyl]-6-(2-phenoxyphenyl)pyridazin-3(2H)-one] are 6.59, 6.67 and 6.42.
Turning to `CCOc1cc(=O)n(C)cc1-c1cc(NS(=O)(=O)CC)ccc1OC1CCC(F)(F)CC1` [Example 385, N-{4-[(4,4-difluorocyclohexyl)oxy]-3-(4-ethoxy-1-methyl-6-oxo-1,6-dihydropyridin-3-yl)phenyl}ethanesulfonamide], the negative-log Ki (pKi) in assay [1] (setting [5]) is 6.85; in assay [3] (setting [5]), 7.26. The pEC50 in assay [2] (72 hours with compound) is 6.60.
As for `COC(=O)CS(=O)(=O)Nc1ccc(Oc2ccccc2)c(-c2ccc(=O)n(C)c2)c1` [Example 225, methyl {[3-(1-methyl-6-oxo-1,6-dihydropyridin-3-yl)-4-phenoxyphenyl]sulfamoyl}acetate], the negative-log Ki (pKi) in assay [1] (setting [4]) is 6.97; in assay [3] (setting [4]), 6.82. Also, in assay [2] (72 h incubation), the pEC50 is 5.00.
The corresponding values for `CC(O)c1ccc(-c2cc(=O)n(C)nc2-c2ccccc2Oc2ccccc2)cc1` (stereo not drawn) [Example 72, 5-[4-(1-hydroxyethyl)phenyl]-2-methyl-6-(2-phenoxyphenyl)pyridazin-3(2H)-one] are 6.89, 6.65 and 5.43.
